In PubChem BioAssay (NCI):
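How tested: cells in 96-well plates exposed to compound for 48 hours at five concentrations. TGI: concentration producing complete growth inhibition.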

Key:
Experiment in all cases: NCI tumour cell line growth inhibition, 48 h
MCF7 breast = system: MCF7 breast
U251 CNS = system: U251 CNS
NCI-H460 lung = system: NCI-H460 lung
SF-268 CNS = system: SF-268 CNS
SN12C renal = system: SN12C renal
OVCAR-3 ovarian = system: OVCAR-3 ovarian
NCI-H226 lung = system: NCI-H226 lung
K-562 leukemia = system: K-562 leukemia
SN12K1 renal = system: SN12K1 renal
HCT-15 colon = system: HCT-15 colon
UACC-62 melanoma = system: UACC-62 melanoma
SNB-19 CNS = system: SNB-19 CNS
SK-MEL-28 melanoma = system: SK-MEL-28 melanoma
HT29 colon = system: HT29 colon
SNB-75 CNS = system: SNB-75 CNS
DMS 273 small cell lung = system: DMS 273 small cell lung
OVCAR-4 ovarian = system: OVCAR-4 ovarian
P388/ADR leukemia = system: P388/ADR leukemia
SK-OV-3 ovarian = system: SK-OV-3 ovarian
HCC-2998 colon = system: HCC-2998 colon
UACC-257 melanoma = system: UACC-257 melanoma
NCI-H23 lung = system: NCI-H23 lung
A498 renal = system: A498 renal
HL-60(TB) leukemia = system: HL-60(TB) leukemia
SK-MEL-2 melanoma = system: SK-MEL-2 melanoma
HOP-92 NSCLC = system: HOP-92 NSCLC
A549 NSCLC = system: A549 NSCLC
SNB-78 CNS = system: SNB-78 CNS
SF-539 CNS = system: SF-539 CNS
NCI-H522 lung = system: NCI-H522 lung
CAKI-1 renal = system: CAKI-1 renal
OVCAR-5 ovarian = system: OVCAR-5 ovarian
SW-620 colon = system: SW-620 colon
HCT-116 colon = system: HCT-116 colon
RXF 393 renal = system: RXF 393 renal
MALME-3M melanoma = system: MALME-3M melanoma
DLD-1 colon = system: DLD-1 colon
HOP-18 NSCLC = system: HOP-18 NSCLC
KM20L2 colon = system: KM20L2 colon
UO-31 renal = system: UO-31 renal
RPMI-8226 leukemia = system: RPMI-8226 leukemia
IGROV1 ovarian = system: IGROV1 ovarian
OVCAR-8 ovarian = system: OVCAR-8 ovarian
XF 498 CNS = system: XF 498 CNS
M19-MEL melanoma = system: M19-MEL melanoma
COLO 205 colon = system: COLO 205 colon
NCI/ADR-RES ovarian = system: NCI/ADR-RES ovarian
MOLT-4 leukemia = system: MOLT-4 leukemia
SF-295 CNS = system: SF-295 CNS
HOP-62 NSCLC = system: HOP-62 NSCLC
CCRF-CEM leukemia = system: CCRF-CEM leukemia
KM12 colon = system: KM12 colon
SK-MEL-5 melanoma = system: SK-MEL-5 melanoma

## CN(C)CCNC(=O)c1ccc(Cl)c2ccc(-c3ccccc3)nc12
MCF7 breast
  TGI: 16.8 µM
U251 CNS
  TGI: 12.7 µM
NCI-H460 lung
  TGI: 8.04 µM
SF-268 CNS
  TGI: 17.5 µM
SN12C renal
  TGI: 15.5 µM
OVCAR-3 ovarian
  TGI: 19.4 µM
NCI-H226 lung
  TGI: 7.3 µM
K-562 leukemia
  TGI: 6.15 µM
SN12K1 renal
  TGI: 9.69 µM
HCT-15 colon
  TGI: 14.5 µM
UACC-62 melanoma
  TGI: 7.83 µM
SNB-19 CNS
  TGI: 17.1 µM
SK-MEL-28 melanoma
  TGI: 14.6 µM
HT29 colon
  TGI: 11.9 µM
SNB-75 CNS
  TGI: 12.3 µM
DMS 273 small cell lung
  TGI: 10.9 µM
OVCAR-4 ovarian
  TGI: 14 µM
P388/ADR leukemia
  TGI: 5.17 µM
SK-OV-3 ovarian
  TGI: 17.4 µM
HCC-2998 colon
  TGI: 16.6 µM
UACC-257 melanoma
  TGI: 14.2 µM
NCI-H23 lung
  TGI: 16.6 µM
A498 renal
  TGI: 12.8 µM
HL-60(TB) leukemia
  TGI: 7.65 µM
SK-MEL-2 melanoma
  TGI: 20.1 µM
HOP-92 NSCLC
  TGI: 7.52 µM
A549 NSCLC
  TGI: 13 µM
SNB-78 CNS
  TGI: 20.5 µM
SF-539 CNS
  TGI: 12.8 µM
NCI-H522 lung
  TGI: 14.9 µM
CAKI-1 renal
  TGI: 12.9 µM
OVCAR-5 ovarian
  TGI: 13.3 µM
SW-620 colon
  TGI: 14.2 µM
HCT-116 colon
  TGI: 11.3 µM
RXF 393 renal
  TGI: 19 µM
MALME-3M melanoma
  TGI: 10.6 µM
DLD-1 colon
  TGI: 12.7 µM
HOP-18 NSCLC
  TGI: 13.5 µM
KM20L2 colon
  TGI: 12.9 µM
UO-31 renal
  TGI: 5.21 µM
RPMI-8226 leukemia
  TGI: 7.83 µM
IGROV1 ovarian
  TGI: 14.1 µM
OVCAR-8 ovarian
  TGI: 12.3 µM
XF 498 CNS
  TGI: 11 µM
M19-MEL melanoma
  TGI: 13.4 µM
COLO 205 colon
  TGI: 4.85 µM
NCI/ADR-RES ovarian
  TGI: 12.1 µM
MOLT-4 leukemia
  TGI: 5.72 µM
SF-295 CNS
  TGI: 16.5 µM
HOP-62 NSCLC
  TGI: 11 µM
CCRF-CEM leukemia
  TGI: 10.8 µM
KM12 colon
  TGI: 24.2 µM
SK-MEL-5 melanoma
  TGI: 4.82 µM
